Patent US20260130395A1, “Water Dispersible Botanical Compositions” (Aquila Black Limited, priority 2021, published 2026)

Assay: Stability of cannabinoid compounds and Vitamin E components in Beverage 2 (AB Red) by LCMSMS
Assay type: physicochemical
Procedure: The stability of the plant-derived cannabinoid compounds and Vitamin E components of the beverage stored 8° C. and at room temperature (21-25° C.) were monitored, over a period of 570 days via Liquid Chromatography-tandem Mass Spectrometry [LCMSMS, AGilent 6590, C18, 3×50 mm, 2.7 m (Agilent InfinityLab Poroshell 120 EC-C18), Electrospray Ionization detector]. The LCMSMS was calibrated for 0-50 ng/ml cannabinoids with the same resin material used in the preparation of the concentrates. At each time period, 100 ml of beverage was diluted with 10 ml of methanol and injected into the LCMSMS for analysis.

CCCCCc1cc(O)c2c(c1)OC(C)(C)c1ccc(C)cc1-2 [CBN, cannabinol]
Stability of Plant-Derived Cannabinoid Compounds in AB Red (stored at 8° C., 0 days): 2.81 µg/mL | Stability of Plant-Derived Cannabinoid Compounds in AB Red (stored at 8° C., 1 days): 2.82 µg/mL | Stability of Plant-Derived Cannabinoid Compounds in AB Red (stored at 8° C., 2 days): 2.74 µg/mL | Stability of Plant-Derived Cannabinoid Compounds in AB Red (stored at 8° C., 3 days): 2.83 µg/mL | Stability of Plant-Derived Cannabinoid Compounds in AB Red (stored at 8° C., 5 days): 2.78 µg/mL | Stability of Plant-Derived Cannabinoid Compounds in AB Red (stored at 8° C., 8 days): 2.80 µg/mL | Stability of Plant-Derived Cannabinoid Compounds in AB Red (stored at 8° C., 9 days): 2.74 µg/mL | Stability of Plant-Derived Cannabinoid Compounds in AB Red (stored at 8° C., 10 days): 2.79 µg/mL | Stability of Plant-Derived Cannabinoid Compounds in AB Red (stored at 8° C., 11 days): 2.73 µg/mL | Stability of Plant-Derived Cannabinoid Compounds in AB Red (stored at 8° C., 12 days): 2.76 µg/mL | Stability of Plant-Derived Cannabinoid Compounds in AB Red (stored at 8° C., 15 days): 2.77 µg/mL | Stability of Plant-Derived Cannabinoid Compounds in AB Red (stored at 8° C., 16 days): 2.83 µg/mL | Stability of Plant-Derived Cannabinoid Compounds in AB Red (stored at 8° C., 17 days): 2.80 µg/mL | Stability of Plant-Derived Cannabinoid Compounds in AB Red (stored at 8° C., 18 days): 2.78 µg/mL | Stability of Plant-Derived Cannabinoid Compounds in AB Red (stored at 8° C., 19 days): 2.78 µg/mL | Stability of Plant-Derived Cannabinoid Compounds in AB Red (stored at 8° C., 22 days): 2.73 µg/mL | Stability of Plant-Derived Cannabinoid Compounds in AB Red (stored at 8° C., 23 days): 2.79 µg/mL | Stability of Plant-Derived Cannabinoid Compounds in AB Red (stored at 8° C., 24 days): 2.76 µg/mL | Stability of Plant-Derived Cannabinoid Compounds in AB Red (stored at 8° C., 25 days): 2.83 µg/mL | Stability of Plant-Derived Cannabinoid Compounds in AB Red (stored at 8° C., 26 days): 2.79 µg/mL | Stability of Plant-Derived Cannabinoid Compounds in AB Red (stored at 8° C., 29 days): 2.77 µg/mL | Stability of Plant-Derived Cannabinoid Compounds in AB Red (stored at 8° C., 30 days): 2.77 µg/mL | Stability of Plant-Derived Cannabinoid Compounds in AB Red (stored at 8° C., 60 days): 2.73 µg/mL | Stability of Plant-Derived Cannabinoid Compounds in AB Red (stored at 8° C., 90 days): 2.80 µg/mL | Stability of Plant-Derived Cannabinoid Compounds in AB Red (stored at 8° C., 120 days): 2.69 µg/mL | Stability of Plant-Derived Cannabinoid Compounds in AB Red (stored at 8° C., 150 days): 2.69 µg/mL | Stability of Plant-Derived Cannabinoid Compounds in AB Red (stored at 8° C., 180 days): 2.74 µg/mL | Stability of Plant-Derived Cannabinoid Compounds in AB Red (stored at 8° C., 210 days): 2.69 µg/mL | Stability of Plant-Derived Cannabinoid Compounds in AB Red (stored at 8° C., 240 days): 2.74 µg/mL | Stability of Plant-Derived Cannabinoid Compounds in AB Red (stored at 8° C., 270 days): 2.76 µg/mL | Stability of Plant-Derived Cannabinoid Compounds in AB Red (stored at 8° C., 300 days): 2.75 µg/mL | Stability of Plant-Derived Cannabinoid Compounds in AB Red (stored at 8° C., 330 days): 2.71 µg/mL | Stability of Plant-Derived Cannabinoid Compounds in AB Red (stored at 8° C., 360 days): 2.69 µg/mL | Stability of Plant-Derived Cannabinoid Compounds in AB Red (stored at 8° C., 390 days): 2.72 µg/mL | Stability of Plant-Derived Cannabinoid Compounds in AB Red (stored at 8° C., 420 days): 2.69 µg/mL | Stability of Plant-Derived Cannabinoid Compounds in AB Red (stored at 8° C., 450 days): 2.71 µg/mL | Stability of Plant-Derived Cannabinoid Compounds in AB Red (stored at 8° C., 480 days): 2.66 µg/mL | Stability of Plant-Derived Cannabinoid Compounds in AB Red (stored at 8° C., 510 days): 2.62 µg/mL | Stability of Plant-Derived Cannabinoid Compounds in AB Red (stored at 8° C., 540 days): 2.60 µg/mL | Stability of Plant-Derived Cannabinoid Compounds in AB Red (stored at 8° C., 570 days): 2.58 µg/mL | Stability of Plant-Derived Cannabinoid Compounds in AB Red (stored at 21-25° C., 0 days): 2.81 µg/mL | Stability of Plant-Derived Cannabinoid Compounds in AB Red (stored at 21-25° C., 1 days): 2.73 µg/mL | Stability of Plant-Derived Cannabinoid Compounds in AB Red (stored at 21-25° C., 2 days): 2.83 µg/mL | Stability of Plant-Derived Cannabinoid Compounds in AB Red (stored at 21-25° C., 3 days): 2.78 µg/mL | Stability of Plant-Derived Cannabinoid Compounds in AB Red (stored at 21-25° C., 5 days): 2.71 µg/mL | Stability of Plant-Derived Cannabinoid Compounds in AB Red (stored at 21-25° C., 8 days): 2.74 µg/mL | Stability of Plant-Derived Cannabinoid Compounds in AB Red (stored at 21-25° C., 9 days): 2.72 µg/mL | Stability of Plant-Derived Cannabinoid Compounds in AB Red (stored at 21-25° C., 10 days): 2.73 µg/mL | Stability of Plant-Derived Cannabinoid Compounds in AB Red (stored at 21-25° C., 11 days): 2.83 µg/mL | Stability of Plant-Derived Cannabinoid Compounds in AB Red (stored at 21-25° C., 12 days): 2.70 µg/mL | Stability of Plant-Derived Cannabinoid Compounds in AB Red (stored at 21-25° C., 15 days): 2.77 µg/mL | Stability of Plant-Derived Cannabinoid Compounds in AB Red (stored at 21-25° C., 16 days): 2.81 µg/mL | Stability of Plant-Derived Cannabinoid Compounds in AB Red (stored at 21-25° C., 17 days): 2.74 µg/mL | Stability of Plant-Derived Cannabinoid Compounds in AB Red (stored at 21-25° C., 18 days): 2.80 µg/mL | Stability of Plant-Derived Cannabinoid Compounds in AB Red (stored at 21-25° C., 19 days): 2.70 µg/mL | Stability of Plant-Derived Cannabinoid Compounds in AB Red (stored at 21-25° C., 22 days): 2.70 µg/mL | Stability of Plant-Derived Cannabinoid Compounds in AB Red (stored at 21-25° C., 23 days): 2.82 µg/mL | Stability of Plant-Derived Cannabinoid Compounds in AB Red (stored at 21-25° C., 24 days): 2.78 µg/mL | Stability of Plant-Derived Cannabinoid Compounds in AB Red (stored at 21-25° C., 25 days): 2.84 µg/mL | Stability of Plant-Derived Cannabinoid Compounds in AB Red (stored at 21-25° C., 26 days): 2.70 µg/mL | Stability of Plant-Derived Cannabinoid Compounds in AB Red (stored at 21-25° C., 29 days): 2.78 µg/mL | Stability of Plant-Derived Cannabinoid Compounds in AB Red (stored at 21-25° C., 30 days): 2.77 µg/mL | Stability of Plant-Derived Cannabinoid Compounds in AB Red (stored at 21-25° C., 60 days): 2.78 µg/mL | Stability of Plant-Derived Cannabinoid Compounds in AB Red (stored at 21-25° C., 90 days): 2.75 µg/mL | Stability of Plant-Derived Cannabinoid Compounds in AB Red (stored at 21-25° C., 120 days): 2.77 µg/mL | Stability of Plant-Derived Cannabinoid Compounds in AB Red (stored at 21-25° C., 150 days): 2.75 µg/mL | Stability of Plant-Derived Cannabinoid Compounds in AB Red (stored at 21-25° C., 180 days): 2.70 µg/mL | Stability of Plant-Derived Cannabinoid Compounds in AB Red (stored at 21-25° C., 210 days): 2.70 µg/mL | Stability of Plant-Derived Cannabinoid Compounds in AB Red (stored at 21-25° C., 240 days): 2.73 µg/mL | Stability of Plant-Derived Cannabinoid Compounds in AB Red (stored at 21-25° C., 270 days): 2.73 µg/mL | Stability of Plant-Derived Cannabinoid Compounds in AB Red (stored at 21-25° C., 300 days): 2.70 µg/mL | Stability of Plant-Derived Cannabinoid Compounds in AB Red (stored at 21-25° C., 330 days): 2.75 µg/mL | Stability of Plant-Derived Cannabinoid Compounds in AB Red (stored at 21-25° C., 360 days): 2.72 µg/mL | Stability of Plant-Derived Cannabinoid Compounds in AB Red (stored at 21-25° C., 390 days): 2.65 µg/mL | Stability of Plant-Derived Cannabinoid Compounds in AB Red (stored at 21-25° C., 420 days): 2.64 µg/mL | Stability of Plant-Derived Cannabinoid Compounds in AB Red (stored at 21-25° C., 450 days): 2.68 µg/mL | Stability of Plant-Derived Cannabinoid Compounds in AB Red (stored at 21-25° C., 480 days): 2.58 µg/mL | Stability of Plant-Derived Cannabinoid Compounds in AB Red (stored at 21-25° C., 510 days): 2.66 µg/mL | Stability of Plant-Derived Cannabinoid Compounds in AB Red (stored at 21-25° C., 540 days): 2.65 µg/mL | Stability of Plant-Derived Cannabinoid Compounds in AB Red (stored at 21-25° C., 570 days): 2.58 µg/mL
